Results as given in patent US11225469B2, “Inhibitors of phosphoglycerate dehydrogenase (PHGDH) and uses thereof” (Whitehead Institute for Biomedical Research, priority 2015, dated 2022).

Tests used:
[1] = test system: MDA-MB-231 cells over-expressing PHGDH; experiment: Intracellular serine in MDA-MB-231 cells expressing PHGDH, medium lacking serine and glycine (LC-MS); format: cell-based, human; settings: media lacking serine and glycine
Method: To examine target engagement of PHGDH inhibitors in cells, MDA-MB-231 cells that lack detectable expression of PHGDH and MDA-MB-231 cells that stably express full-length human PHGDH (MDA-MB-231-PHGDH) were treated with PHGDH inhibitors in RPMI lacking serine and glycine. A MDA-MB-231 cell line was constructed which expresses PHGDH for comparison against the MDA-MB-231 empty vector line. MDA-MB-231 breast cancer cells were infected with PHGDH-expressing retrovirus.
MDA-MB-231 cells are incapable of synthesizing serine, but the addition of PHGDH permits these cells to synthesize serine. […] Concentrations of serine were determined by comparison with signals of internal standards and calibration curves. PHGDH inhibition reduces steady-state levels of intracellular serine in MDA-MB-231 cells over-expressing PHGDH. Studies were also performed in MDA-MB-468 cells, which over-express PHGDH and are PHGDH-dependent.
Cells were evenly seeded at 400,000 cells per well of a 6-well plate and allowed to attach for 24 hours. Prior to all labeling experiments, cells were pretreated with 10 μM compound or an equivalent volume of DMSO in RPMI for 1 hour. For steady-state metabolite concentrations, cells were washed with PBS prior to pretreatment and treatment in RPMI lacking serine and glycine. For labeling experiments, U-^13C-glucose, U-^13C-serine, or U-^13C-glycine replaced the corresponding unlabeled RPMI component. Cells were washed in 4° C. […] Triplicate identically seeded wells were trypsinzed and analyzed with a Multisizer Coulter Counter (Beckman Coulter) to obtain cell counts and total cell volumes for normalization.
Dried metabolites were resuspended in 100 μL water, centrifuged at 13,000×g at 4° C. for 10 minutes, and the supernatant recovered for analysis. […] Metabolites were monitored using a polarity-switching full-scan method and identified by accurate mass (±20 ppm) and retention time within 15 seconds of a previously run pure standard. […]

[2] = test system: MDA-MB-468 cells; experiment: Metabolite profiling and 13C labeling in MDA-MB-468 cells (LC-MS); format: cell-based, human
Method: To track the effects of PHGDH inhibition on glycolysis and serine biosynthesis, MDA-MB-231 and MDA-MB-468 cells were fed universally labeled carbon-13 glucose and the intracellular ratio of labeled to unlabeled glucose was measured at the times indicated in FIG. 3E.
Cells were evenly seeded at 400,000 cells per well of a 6-well plate and allowed to attach for 24 hours. Prior to all labeling experiments, cells were pretreated with 10 μM compound or an equivalent volume of DMSO in RPMI for 1 hour. For steady-state metabolite concentrations, cells were washed with PBS prior to pretreatment and treatment in RPMI lacking serine and glycine. For labeling experiments, U-^13C-glucose, U-^13C-serine, or U-^13C-glycine replaced the corresponding unlabeled RPMI component. Cells were washed in 4° C. 0.9% (w/v) NaCl in LCMS-grade water and extracted in 1 mL/well of 80:20 (v/v) methanol:water with 0.01 ng/mL Val-d8 and Phe-d8 as internal extraction standards. The extraction solvent was dried under nitrogen gas and metabolite samples were stored at −80° C. until analysis. Triplicate identically seeded wells were trypsinzed and analyzed with a Multisizer Coulter Counter (Beckman Coulter) to obtain cell counts and total cell volumes for normalization.
Dried metabolites were resuspended in 100 μL water, centrifuged at 13,000×g at 4° C. for 10 minutes, and the supernatant recovered for analysis. Chromatographic separation was achieved by injecting 1 pi of sample on a SeQuant ZIC-pHILIC Polymeric column (2.1 3 150 mm […], EMD Millipore). Flow rate was set to 0.1 ml per minute, column compartment was set to 25° C., and autosampler sample tray was set to 4° C. Mobile Phase A consisted of 20 mM ammonium carbonate, 0.1% ammonium hydroxide. Mobile Phase B was 100% acetonitrile. The mobile phase gradient (% B) was as follows: 0 min 80%, 30 min 20%, 31 min 80%, 42 min 80%. All mobile phase was introduced into the ionization source set with the following parameters: sheath gas=40, auxiliary gas=15, sweep gas=5, spray voltage=−3.1 kV or +3.0 kV, capillary temperature=275° C., S-lens RF level=40, probe temperature=350° C. Metabolites were monitored using a polarity-switching full-scan method and identified by accurate mass (±20 ppm) and retention time within 15 seconds of a previously run pure standard. Metabolite peaks were identified and integrated with Xcalibur v.2.2 software (Thermo Fisher Scientific) and normalized to internal standard and to total cell volume, m/z ratios for stable isotopically labeled metabolites were obtained from IsoMETLIN (See, e.g., Cho, K. et al. “isoMETLIN: a database for isotope-based metabolomics.” Anal Chem 86, 9358-9361 (2014)) and corrected for natural abundance.

[3] = Body weight of treated xenograft mice; format: in vivo, mouse; settings: 24-day treatment
Method: (§1) Female NOD.CB17-Prkdc^scid/J mice, 6-8 weeks old, were obtained from Jackson Laboratories. All animals were provided with food ad libitum for the duration for the duration of the experiment. The animals were allocated randomly for induction with MDA-MB-231 or MDA-MB-468 tumors and tumor group was assigned blindly. 500,000 MDA-MB-231 or MDA-MB-468 cells were injected into the 4th mammary fat pad of each mouse. After 30 days, the tumors were palpable, and the mice were pooled by tumor type and divided randomly to two groups, which were assigned blindly to vehicle or NCT-503 treatment. […] Caliper measurements were obtained twice weekly and tumor volumes were calculated with the modified ellipsoid formula: volume=0.5×width^2×length.

[4] = test system: MDA-MB-231 orthotopic xenografts; experiment: MDA-MB-231 orthotopic xenografts; format: in vivo, mouse; settings: 40 mg/kg daily, IP
Method: as §1
For quantitation of necrotic regions, fixed tumors were embedded and sections stained with hematoxylin and eosin. Slides were scanned with a Leica Aperio AT2 brightfield scanner. Tumor and necrotic cross-sectional regions were manually delineated and measured using Leica ImageScope software to calculate the percentage of necrosis.

[5] = test system: PHGDH-dependent cell lines (MDA-MB-468, BT-20, HCC70, HT1080, and MT-3); experiment: Cytotoxicity (Cell Titer-Glo), PHGDH-dependent cell lines; format: cell-based; settings: Homo sapiens
Method: Knockdown of PHGDH is selectively toxic towards PHGDH-dependent cell lines, and minimally toxic towards PHGDH-independent cell lines. […] Cell count was determined by quantitating the amount of ATP present with CellTitreGlo® measurements 96 hours after dosage.
Cells were seeded in white 96-well plates (Greiner) at a density of 2000 cells/well (MDA-MB-468, BT-20, MT-3) or 1000 cells/well (all other cell lines) and allowed to attach for 24 hours. Compounds were prepared in DMSO and dispensed using an HP D300 compound dispenser. Cell viability was assessed with Cell Titer-Glo (Promega) at four days following treatment and luminescence measured with a SpectraMax M5 Plate Reader (Molecular Devices). Luminescence was normalized to an untreated control in identical medium. For rescue experiments, RPMI was supplemented with 40 μM adenosine, uridine, guanosine, cytidine, deoxyadenosine, thymidine, deoxyguanosine, and deoxycytidine and the medium was replaced daily.

[6] = biological target: PHGDH (Homo sapiens (Human), UniProt O43175); experiment: Differential scanning fluorimetry; format: binding
Method: Destabilization has been previously observed in the specific binding of small molecules to their protein targets (see, e.g., Hamiaux, C. et al. “DAD2 is an α/β hydrolase likely to be involved in the perception of the plant branching hormone, strigolactone.” Curr Biol 22, 2032-2036 (2012)).
Differential scanning fluorimetry assays were carried out in 20 mM TEA pH 8, 100 mM NaCl, 1× SYPRO Orange (Sigma), 2 μM PHGDH in a volume of 10 μL. Unfolding was monitored using a LightCycler 480 II real-time PCR instrument (λex=465 nm and λem=580 nm) over a linear 20 to 85° C. gradient. Plots of the first derivative of fluorescence vs. temperature were generated in LightCycler software.

Chain of PHGDH (O43175 whole entry): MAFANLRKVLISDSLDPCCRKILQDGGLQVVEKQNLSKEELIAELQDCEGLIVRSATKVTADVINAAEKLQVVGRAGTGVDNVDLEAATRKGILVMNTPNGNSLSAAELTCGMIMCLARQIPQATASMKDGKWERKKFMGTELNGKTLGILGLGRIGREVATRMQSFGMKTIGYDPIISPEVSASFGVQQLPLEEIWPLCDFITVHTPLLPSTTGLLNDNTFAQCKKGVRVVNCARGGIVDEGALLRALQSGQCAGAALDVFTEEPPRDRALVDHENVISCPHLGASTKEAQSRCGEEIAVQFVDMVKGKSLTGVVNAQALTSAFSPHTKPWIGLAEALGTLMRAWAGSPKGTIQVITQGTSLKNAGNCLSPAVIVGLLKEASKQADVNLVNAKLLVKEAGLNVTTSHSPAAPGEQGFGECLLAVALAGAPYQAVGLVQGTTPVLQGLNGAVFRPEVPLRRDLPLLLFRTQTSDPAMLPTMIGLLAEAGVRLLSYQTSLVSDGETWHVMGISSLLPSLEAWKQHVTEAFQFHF

**Q.** With Cc1cc(C)nc(NC(=S)N2CCN(Cc3ccc(C(F)(F)F)cc3)CC2)c1 [Compound 267, N-(4,6-dimethylpyridin-2-yl)-4-(4-(trifluoromethyl)benzyl)piperazine-1-carbothioamide] as the molecule, how does the intracellular serine levels [1] read?
**A.** reduced

**Q.** And the intracellular glucose concentration [2]?
**A.** did not change

**Q.** And the “incorporation of 13C from exogenous U-13C-serine into AMP and dTMP” value ([2]; treatment for 4 hours)?
**A.** decreased

**Q.** And the “reduction of labeled (glucose-derived) intracellular serine” value ([2]; universally labeled carbon-13 glucose)?
**A.** > 75%

**Q.** And the “reversibility of inhibition of serine synthesis in cells” value ([2]; washout)?
**A.** reversible

**Q.** What about the “body weight of mice” value [3] of the same molecule?
**A.** did not lose weight

**Q.** And the “growth or weight of xenografts” value [4]?
**A.** did not affect the growth or weight

**Q.** And the EC50 [5]?
**A.** 8 to 16 µM

**Q.** What about the “Tm of PHGDH” value [6] of the same molecule?
**A.** decreased
